Measurements taken from the supplement of paper PMC10307832.

Experiments:
Assay in all cases: relative viability (nuclei count vs DMSO), 5 days (fraction); higher = more cells survive
[1] = compound: CC1CC(=O)N(C2=CN=C(N=C2N1C3CCCC3)NC4=C(C=C(C=C4)C(=O)NC5CCN(CC5)C)OC)C [NPK76-II-72-1] + CC(=O)c1c(C)c2cnc(Nc3ccc(N4CCNCC4)cn3)nc2n(C2CCCC2)c1=O [Palbociclib] (partner 0.5 µM)
Procedure, shortened: (§1)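 Lung cancer cell lines in 1536-well plates got either a single drug or a fixed anchor-drug dose together with five library-drug doses (not always all listed) in √10 steps, by pin tool, on the day after seeding. Nuclei were counted after 5 days, and relative viability is the treated-to-vehicle ratio of nuclei counts. Values are medians of duplicate plates.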

[2] = compound: CC1CC(=O)N(C2=CN=C(N=C2N1C3CCCC3)NC4=C(C=C(C=C4)C(=O)NC5CCN(CC5)C)OC)C [NPK76-II-72-1] + Cc1nc(NC(=O)N2CCC[C@H]2C(N)=O)sc1-c1ccnc(C(C)(C)C(F)(F)F)c1 [Alpelisib] (partner 2 µM)
Procedure, shortened: as §1

BI-2536 + Pictilisib = compound: CC[C@@H]1C(=O)N(C)c2cnc(Nc3ccc(C(=O)NC4CCN(C)CC4)cc3OC)nc2N1C1CCCC1 [BI-2536] + CS(=O)(=O)N1CCN(Cc2cc3nc(-c4cccc5[nH]ncc45)nc(N4CCOCC4)c3s2)CC1 [Pictilisib] (partner 1 µM)
Procedure, shortened: as §1

BI-2536 + Pemetrexed = compound: CC[C@@H]1C(=O)N(C)c2cnc(Nc3ccc(C(=O)NC4CCN(C)CC4)cc3OC)nc2N1C1CCCC1 [BI-2536] + Nc1nc2[nH]cc(CCc3ccc(C(=O)N[C@@H](CCC(=O)O)C(=O)O)cc3)c2c(=O)[nH]1 [Pemetrexed] (partner 0.2 µM)
Procedure, shortened: as §1

Row | Cell Line | relative viability ([1]; first compound 0.01 µM) | relative viability ([1]; first compound 0.03162 µM) | relative viability ([1]; first compound 0.1 µM) | relative viability ([1]; first compound 0.3162 µM) | relative viability ([1]; first compound 1 µM) | relative viability ([2]; first compound 0.01 µM) | relative viability ([2]; first compound 0.03162 µM) | relative viability ([2]; first compound 0.1 µM) | relative viability ([2]; first compound 0.3162 µM) | relative viability ([2]; first compound 1 µM) | relative viability (BI-2536 + Pictilisib; first compound 0.01 µM) | relative viability (BI-2536 + Pictilisib; first compound 0.03162 µM) | relative viability (BI-2536 + Pictilisib; first compound 0.3162 µM) | relative viability (BI-2536 + Pictilisib; first compound 1 µM) | relative viability (BI-2536 + Pemetrexed; first compound 0.01 µM) | relative viability (BI-2536 + Pemetrexed; first compound 0.03162 µM) | relative viability (BI-2536 + Pemetrexed; first compound 0.1 µM) | relative viability (BI-2536 + Pemetrexed; first compound 0.3162 µM) | relative viability (BI-2536 + Pemetrexed; first compound 1 µM) | relative viability (BI-2536 + Pictilisib; first compound 0.1 µM)
1 | EPLC-272H | 0.332 | 0.339 | 0.335 | 0.329 | 0.369 | 0.854 | 0.88 | 0.964 | 0.928 | 0.88 | 0.343 | 0.256 | 0.233 | 0.151 | 0.294 | 0.173 | 0.0902 | 0.106 | 0.0725 | –
2 | NCI-H1915 | 0.508 | 0.606 | 0.529 | 0.502 | 0.536 | 1.07 | 1.06 | 1.05 | 1.01 | 1.1 | 0.866 | 0.899 | 0.074 | 0.0908 | 0.507 | 0.427 | 0.347 | 0.147 | 0.0852 | 0.264
3 | NCI-H2405 | 0.528 | 0.554 | 0.514 | 0.514 | 0.561 | 0.654 | 0.853 | 0.753 | 0.744 | 0.921 | 0.369 | 0.391 | 0.0965 | 0.201 | 1.07 | 0.992 | 0.375 | 0.342 | 0.457 | 0.265
4 | NCI-H322M | 0.485 | 0.492 | 0.48 | 0.482 | 0.47 | 0.781 | 0.73 | 0.766 | 0.922 | 0.818 | 0.303 | 0.478 | 0.519 | 0.271 | 0.607 | 0.542 | 0.639 | 0.454 | 0.363 | 0.559
5 | NCI-H2170 | 0.395 | 0.358 | 0.435 | 0.285 | 0.415 | 0.772 | 0.839 | 0.777 | – | 0.789 | 0.342 | 0.295 | 0.184 | 0.168 | 0.285 | 0.254 | 0.183 | 0.161 | 0.163 | 0.192
6 | NCI-H1395 | 0.627 | 0.621 | 0.621 | 0.661 | 0.616 | 1.02 | 0.994 | 0.979 | 1.17 | 1.03 | 0.622 | 0.524 | 0.339 | 0.357 | 0.73 | 0.643 | 0.34 | 0.323 | 0.402 | 0.747
7 | NCI-H358 | 0.131 | 0.186 | 0.165 | – | 0.126 | 0.876 | 0.827 | 0.884 | 0.508 | 1.01 | 0.338 | 0.235 | 0.14 | 0.15 | 0.191 | 0.178 | 0.194 | 0.0986 | 0.102 | 0.18
8 | NCI-H838 | 0.209 | 0.2 | 0.217 | 0.228 | 0.228 | 0.974 | 0.942 | 0.972 | 0.948 | 1.02 | 0.44 | 0.393 | 0.118 | 0.122 | 0.241 | 0.239 | 0.183 | 0.12 | 0.119 | 0.203
9 | CAL-12T | 0.334 | 0.498 | 0.517 | 0.404 | 0.491 | 1.13 | 1.15 | 0.877 | 1.03 | 1.27 | 0.536 | 0.401 | 0.181 | 0.141 | 1.04 | 0.955 | 0.623 | 0.195 | 0.131 | 0.178
